Active and inactive are the calls of the source. The rule behind the calls is not given here.
Tested on: rodent carcinogenicity bioassays, tumor incidence
Assay: CCRIS carcinogenicity studies
Outline: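 Archive of carcinogenicity, mutagenicity, tumor promotion and tumor inhibition results drawn from journals, NCI reports and other sources, expert-reviewed; covers 1985-2011 and is no longer updated.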

c1cc(OCC2CO2)cc(OCC2CO2)c1 (configuration not stated)
carcinogen call (Species: MOUSE, Strain/Sex: B6C3F1/FEMALE, Route: GAVAGE, Dose: 0, 50, 100 MG/KG BW IN CORN OIL 5 D/WK FOR 103 WK (STUDY DURATION: 105 WK), Dose: 0, 50, 100 MG/KG BW IN CORN OIL 5 D/WK FOR 103 WK (STUDY DURATION: 105 WK), Tumor Site: Type of Lesion: FORESTOMACH: SQUAMOUS CELL CARCINOMA, SQUAMOUS CELL PAPILLOMA): active; positive
carcinogen call (Species: MOUSE, Strain/Sex: B6C3F1/FEMALE, Route: GAVAGE, Dose: 0, 50, 100 MG/KG IN CORN OIL 5 D/WK FOR 103 WK (STUDY DURATION: 104-105 WK), Dose: 0, 50, 100 MG/KG IN CORN OIL 5 D/WK FOR 103 WK (STUDY DURATION: 104-105 WK), Tumor Site: Type of Lesion: FORESTOMACH: SQUAMOUS CELL PAPILLOMA, SQUAMOUS CELL CARCINOMA): active; positive
carcinogen call (Species: MOUSE, Strain/Sex: B6C3F1/MALE, Route: GAVAGE, Dose: 0, 50, 100 MG/KG BW IN CORN OIL 5 D/WK FOR 103 WK (STUDY DURATION: 105 WK), Dose: 0, 50, 100 MG/KG BW IN CORN OIL 5 D/WK FOR 103 WK (STUDY DURATION: 105 WK), Tumor Site: Type of Lesion: FORESTOMACH: SQUAMOUS CELL CARCINOMA, SQUAMOUS CELL PAPILLOMA): active; positive
carcinogen call (Species: MOUSE, Strain/Sex: B6C3F1/MALE, Route: GAVAGE, Dose: 0, 50, 100 MG/KG IN CORN OIL 5 D/WK FOR 103 WK (STUDY DURATION: 104-105 WK), Dose: 0, 50, 100 MG/KG IN CORN OIL 5 D/WK FOR 103 WK (STUDY DURATION: 104-105 WK), Tumor Site: Type of Lesion: FORESTOMACH: SQUAMOUS CELL PAPILLOMA, SQUAMOUS CELL CARCINOMA): active; positive
carcinogen call (Species: RAT, Strain/Sex: F344/FEMALE, Route: GAVAGE, Dose: 0, 12, 25, 50 MG/KG BW IN CORN OIL 5 D/WK FOR 103 WK (STUDY DURATION: 105 WK), Dose: 0, 12, 25, 50 MG/KG BW IN CORN OIL 5 D/WK FOR 103 WK (STUDY DURATION: 105 WK), Tumor Site: Type of Lesion: FORESTOMACH: SQUAMOUS CELL CARCINOMA, SQUAMOUS CELL PAPILLOMA): active; positive
carcinogen call (Species: RAT, Strain/Sex: F344/FEMALE, Route: GAVAGE, Dose: 0, 12, 25, 50 MG/KG IN CORN OIL 5 D/WK FOR 103 WK (STUDY DURATION: 104-105 WK), Dose: 0, 12, 25, 50 MG/KG IN CORN OIL 5 D/WK FOR 103 WK (STUDY DURATION: 104-105 WK), Tumor Site: Type of Lesion: FORESTOMACH: SQUAMOUS CELL PAPILLOMA, SQUAMOUS CELL CARCINOMA): active; positive
carcinogen call (Species: RAT, Strain/Sex: F344/MALE, Route: GAVAGE, Dose: 0, 12, 25, 50 MG/KG IN CORN OIL 5 D/WK FOR 103 WK (STUDY DURATION: 104-105 WK), Dose: 0, 12, 25, 50 MG/KG IN CORN OIL 5 D/WK FOR 103 WK (STUDY DURATION: 104-105 WK), Tumor Site: Type of Lesion: FORESTOMACH: SQUAMOUS CELL PAPILLOMA, SQUAMOUS CELL CARCINOMA): active; positive
carcinogen call (Species: RAT, Strain/Sex: F344/MALE, Route: GAVAGE, Dose: 0, 12, 25, 50 MG/KG IN CORN OIL 5 D/WK FOR 103 WK (STUDY DURATION: 105 WK), Dose: 0, 12, 25, 50 MG/KG IN CORN OIL 5 D/WK FOR 103 WK (STUDY DURATION: 105 WK), Tumor Site: Type of Lesion: FORESTOMACH: SQUAMOUS CELL CARCINOMA, SQUAMOUS CELL PAPILLOMA): active; positive

O=C1NCCN1c1ncc([N+](=O)[O-])s1
carcinogen call (Species: HAMSTER, Route: ORAL, Tumor Site: Type of Lesion: FORESTOMACH, URINARY BLADDER): active; positive
carcinogen call (Species: MOUSE, Route: ORAL, Tumor Site: Type of Lesion: FORESTOMACH, MAMMARY GLAND, OVARIES, LUNG, URINARY BLADDER, Tumor Site: Type of Lesion: FORESTOMACH, MAMMARY GLAND, OVARIES, LUNG, URINARY BLADDER): active; positive

Nc1ccc(Cc2ccc(N)cc2)cc1
carcinogen call (Species: MOUSE, Strain/Sex: B6C3F1/FEMALE, Route: ORAL, Dose: 0, 0.015, 0.03% IN DIET FOR 103 WK (STUDY DURATION: 104 WK), Dose: 0, 0.015, 0.03% IN DIET FOR 103 WK (STUDY DURATION: 104 WK), Tumor Site: Type of Lesion: THYROID GLAND: FOLLICULAR ADENOMA, LIVER: HEPATOCELLULAR ADENOMA, LIVER: HEPATOCELLULAR CARCINOMA, Tumor Site: Type of Lesion: THYROID GLAND: FOLLICULAR ADENOMA, LIVER: HEPATOCELLULAR ADENOMA, LIVER: HEPATOCELLULAR CARCINOMA): active; positive
carcinogen call (Species: MOUSE, Strain/Sex: B6C3F1/FEMALE, Route: ORAL, Dose: 0, 150, 300 PPM IN DRINKING WATER, Dose: 0, 150, 300 PPM IN DRINKING WATER, Tumor Site: Type of Lesion: THYROID GLAND: FOLLICULAR CELL ADENOMA, CARCINOMA, LIVER: HEPATOCELLULAR ADENOMA, CARCINOMA, LYMPHATIC SYSTEM: MALIGNANT, Tumor Site: Type of Lesion: THYROID GLAND: FOLLICULAR CELL ADENOMA, CARCINOMA, LIVER: HEPATOCELLULAR ADENOMA, CARCINOMA, LYMPHATIC SYSTEM: MALIGNANT): active; positive
carcinogen call (Species: MOUSE, Strain/Sex: B6C3F1/MALE, Route: ORAL, Dose: 0, 0.015, 0.03% IN DIET FOR 103 WK (STUDY DURATION: 104 WK), Dose: 0, 0.015, 0.03% IN DIET FOR 103 WK (STUDY DURATION: 104 WK), Tumor Site: Type of Lesion: THYROID GLAND: FOLLICULAR ADENOMA, LIVER: HEPATOCELLULAR CARCINOMA): active; positive
carcinogen call (Species: MOUSE, Strain/Sex: B6C3F1/MALE, Route: ORAL, Dose: 0, 150, 300 PPM IN DRINKING WATER, Dose: 0, 150, 300 PPM IN DRINKING WATER, Tumor Site: Type of Lesion: THYROID GLAND: FOLLICULAR CELL ADENOMA, ADRENAL GLAND: PHEOCHROMOCYTOMA, LIVER: HEPATOCELLULAR ADENOMA, CARCINOMA, Tumor Site: Type of Lesion: THYROID GLAND: FOLLICULAR CELL ADENOMA, ADRENAL GLAND: PHEOCHROMOCYTOMA, LIVER: HEPATOCELLULAR ADENOMA, CARCINOMA): active; positive
carcinogen call (Species: RAT, Strain/Sex: F344/FEMALE, Route: ORAL, Dose: 0, 0.015, 0.03% IN DIET FOR 103 WK (STUDY DURATION: 104 WK), Dose: 0, 0.015, 0.03% IN DIET FOR 103 WK (STUDY DURATION: 104 WK), Tumor Site: Type of Lesion: THYROID GLAND: FOLLICULAR ADENOMA): active; positive
carcinogen call (Species: RAT, Strain/Sex: F344/FEMALE, Route: ORAL, Dose: 0, 150, 300 PPM IN DRINKING WATER, Dose: 0, 150, 300 PPM IN DRINKING WATER, Tumor Site: Type of Lesion: THYROID GLAND: FOLLICULAR CELL ADENOMA, CARCINOMA, C CELL ADENOMA, CARCINOMA): active; positive
carcinogen call (Species: RAT, Strain/Sex: F344/MALE, Route: ORAL, Dose: 0, 0.15, 0.03% IN DIET FOR 103 WK (STUDY DURATION: 104 WK), Dose: 0, 0.15, 0.03% IN DIET FOR 103 WK (STUDY DURATION: 104 WK), Tumor Site: Type of Lesion: THYROID GLAND: FOLLICULAR CARCINOMA, LIVER: NEOPLASTIC NODULE): active; positive
carcinogen call (Species: RAT, Strain/Sex: F344/MALE, Route: ORAL, Dose: 0, 150, 300 PPM IN DRINKING WATER, Dose: 0, 150, 300 PPM IN DRINKING WATER, Tumor Site: Type of Lesion: THYROID GLAND: FOLLICULAR CELL ADENOMA, CARCINOMA, LIVER: NEOPLASTIC NODULE): active; positive

COc1cccc2c1cc([N+](=O)[O-])c1c(C(=O)O)cc3c(c12)OCO3
carcinogen call (Species: RAT, Strain/Sex: SPRAGUE-DAWLEY/FEMALE, Route: ORAL, GAVAGE, Dose: 50 MG/KG BW/D FOR 3 D (STUDY DURATION: 6 MO), Tumor Site: Type of Lesion: KIDNEY: TUMORS, 29% (THERE WERE 3 MESENCHYMAL TUMORS AND 1 RENAL ONCOCYTOMA IN 14 ANIMALS)): active; positive

Clc1nc(Cl)nc(Nc2ccccc2Cl)n1
carcinogen call (Species: MOUSE, Strain/Sex: B6C3F1/FEMALE, Route: ORAL, Dose: 0, 500, 1000 PPM IN DIET, Dose: 0, 500, 1000 PPM IN DIET): inactive; negative
carcinogen call (Species: MOUSE, Strain/Sex: B6C3F1/MALE, Route: ORAL, Dose: 0, 500, 1000 PPM IN DIET, Dose: 0, 500, 1000 PPM IN DIET): inactive; negative
carcinogen call (Species: Mouse, Strain/Sex: CD-1/Female, Route: Oral, Dose: 0, 50, 250, 1250 ppm in feed for 2 yrs, Dose: 0, 50, 250, 1250 ppm in feed for 2 yrs): inactive; negative; purity 93.5%
carcinogen call (Species: Mouse, Strain/Sex: CD-1/Male, Route: Oral, Dose: 0, 50, 250, 1250 ppm in feed for 2 yrs, Dose: 0, 50, 250, 1250 ppm in feed for 2 yrs): inactive; negative; purity 93.5%
carcinogen call (Species: RAT, Strain/Sex: F344/FEMALE, Route: ORAL, Dose: 0, 500, 1000 PPM IN DIET, Dose: 0, 500, 1000 PPM IN DIET): inactive; negative
carcinogen call (Species: RAT, Strain/Sex: F344/MALE, Route: ORAL, Dose: 0, 500, 1000 PPM IN DIET, Dose: 0, 500, 1000 PPM IN DIET): inactive; negative
carcinogen call (Species: Rat, Strain/Sex: Sprague Dawley/Female, Route: Oral, Dose: 0, 50, 330, 2000 ppm in feed for 104 wks, Dose: 0, 50, 330, 2000 ppm in feed for 104 wks): inactive; negative; purity 93.5%
carcinogen call (Species: Rat, Strain/Sex: Sprague Dawley/Male, Route: Oral, Dose: 0, 50, 330, 2000 ppm in feed for 104 wks, Dose: 0, 50, 330, 2000 ppm in feed for 104 wks): inactive; negative; purity 93.5%
